Laboratory results taken from patent US20250235450A1, “COMBINATION THERAPIES COMPRISING APREMILAST AND TYK2 INHIBITORS” (Celgene Corporation, priority 2019, published 2025).
Like-named read-outs stand apart in the source and are kept apart here.

Test system: anti-CD3/anti-CD28 (Th0) or anti-CD3/anti-CD28, IL-1β, IL-6 and IL-23 (Th17) stimulated whole blood
Assay: Ex-vivo TruCulture tube assay: cytokine production in stimulated whole blood
Assay type: cell-based, human
Experimental: Whole blood was received through the Celgene Donor program after informed consent and donor deidentification. All volunteers were healthy and were not on any medications for at least 72 hours prior to the blood draw. Blood was collected in sodium heparin tubes. The assay was started within 2 hours of the blood draw.
An ex-vivo stimulation of healthy donor human whole blood was performed under two different stimulation conditions. Condition Th0 was a stimulation with TruCulture® tubes containing anti-CD3/anti-CD28. Condition Th17 was a stimulation with TruCulture® tubes containing anti-CD3/anti-CD28 plus IL-1β, IL-6 and IL-23. Whole blood was separated into 15 milliliter conical tubes and pre-treated with DMSO, apremilast alone, BMS-986165 alone or BMS-986165 combined with apremilast. Final concentrations were 0.2% DMSO, 1 μM for apremilast alone, 1 μM, 0.1 μM, 0.01 μM and 0.001 μM BMS-986165 alone and in combination with 1 μM apremilast. Blood was mixed well and then incubated in a 37° C./5% CO2 incubator for 1 hour.
The anti-CD3/anti-CD28 (200 ng/ml and 330 ng/ml final concentrations respectively) TruCulture® tubes were thawed on the bench top for 30 minutes and then labeled. Plungers were pressed and then broken off. TruCulture® tubes were placed in a rack standing upright such that the plunger side is pointing down in the rack and the tube-cap is pointing up. While blood was incubating with compound Human recombinant IL-6, IL-1β and IL-23 were added to all Th17 tubes in the following concentrations: 120 ng IL-6, 120 ng IL-1b and 150 ng IL-23. One ml of the pre-treated whole blood was placed in each tube, using sterile pyrogen-free pipette tips. The cap was replaced and the contents of the tube were mixed by inverting 3 times. The tubes were immediately placed in a 37° C. heat block and incubated for 42 hours (tube-cap end). After the 42 hours the tubes were removed from the heat block, tops were unscrewed and 250 μl of the supernatant was removed and transferred into three 96-well polypropylene plates. Samples were immediately frozen at −80° C. The supernatants were then thawed at room temperature and tested neat for cytokine production by Luminex Multi-Plex MagPix technology (Millipore) or IL-22 by ELISA (Abcam). The manufacturer's procedures were followed accordingly.
Data processing for the cytokine analysis was done using Milliplex Analyst (Millipore), and raw data was exported to Excel template for the cytokine analysis. Data from the template was plotted using GraphPad Prism 7.0 (GraphPad Software, Inc., La Jolla, CA) and expressed as pg/ml or % of control. Statistical analysis was also performed using One Way Anova and Dunnett's Post Test.
To evaluate the combinatory effect of apremilast and BMS-986165, data from the two independent treatments were analyzed by comparing the combinatory response against the theoretical additive response of the two agents. The expected additive effect of two agents (A and B) was calculated using the fractional product method: (fu)A,B=(fu)A×(fu)B; where fu=fraction unaffected by treatment.

[1] = Th0, 0.01 μM BMS-986165 (combination: + 1 μM apremilast)
[2] = Th0, 0.1 μM BMS-986165 (combination: + 1 μM apremilast)
[3] = Th17, 0.01 μM BMS-986165 (combination: + 1 μM apremilast)
[4] = Th17, 0.1 μM BMS-986165 (combination: + 1 μM apremilast)

[2H]C([2H])([2H])NC(=O)c1nnc(NC(=O)C2CC2)cc1Nc1cccc(-c2ncn(C)n2)c1OC [BMS-986165, 6-(cyclopropanecarboxamido)-4-((2-methoxy-3-(1-methyl-1H-1,2,4-triazol-3-yl)phenyl)amino)-N-(methyl-d3)pyridazine-3-carboxamide]
increase of GM-CSF, statistical significance (0.1 μM BMS-986165 (Th0 and Th17) and 1 μM (Th17)): significant | inhibition at 0.01 µM (Homo sapiens, Th0, 0.01 μM BMS-986165, read-out: inhibition of IL-22): 16% | inhibition at 0.1 µM (Homo sapiens, Th0, 0.1 μM BMS-986165, read-out: inhibition of IL-22): 86% | inhibition at 1 µM (Homo sapiens, Th0, 1 μM BMS-986165, read-out: inhibition of IL-22): 91% | inhibition at 0.001 µM (Homo sapiens, Th17, 0.001 μM BMS-986165 (combination: + 1 μM apremilast), read-out: inhibition of IL-17F): 31% | inhibition at 0.01 µM (Homo sapiens, Th17, 0.01 μM BMS-986165 (combination: + 1 μM apremilast), read-out: inhibition of IL-17F): 34% | inhibition at 0.1 µM (Homo sapiens, Th17, 0.1 μM BMS-986165 (combination: + 1 μM apremilast), read-out: inhibition of IL-17F): 70% | inhibition at 1 µM (Homo sapiens, Th17, 1 μM BMS-986165 (combination: + 1 μM apremilast), read-out: inhibition of IL-17F): 95% | inhibition at 1 µM (Homo sapiens, Th17, 1 μM BMS-986165, read-out: inhibition of TNF-α): 68% | increase in TNF-α expression (Th0, 0.001 μM BMS-986165): 21% | increase of GM-CSF (Th0, 0.001 μM BMS-986165): 19% | increase in TNF-α expression (Th0, 0.01 μM BMS-986165): 43% | increase of GM-CSF (Th0, 0.01 μM BMS-986165): 36% | CCL20 % of Control [1]: 82.7 % of Control | GM-CSF % of Control [1]: 136.3 % of Control | IFN-γ % of Control [1]: 100.2 % of Control | IL-1β % of Control [1]: 113.5 % of Control | IL-2 % of Control [1]: 120.1 % of Control | IL-4 % of Control [1]: 122.8 % of Control | IL-5 % of Control [1]: 153.1 % of Control | IL-6 % of Control [1]: 149.3 % of Control | IL-10 % of Control [1]: 101.5 % of Control | IL-13 % of Control [1]: 146.9 % of Control | IL-17A % of Control [1]: 83.5 % of Control | IL-17F % of Control [1]: 68.5 % of Control | IL-21 % of Control [1]: 107.6 % of Control | IL-22 % of Control [1]: 84.1 % of Control | IL-23 % of Control [1]: 101.8 % of Control | TNF-α % of Control [1]: 143.1 % of Control | increase in TNF-α expression (Th0, 0.1 μM BMS-986165): 61% | increase of GM-CSF (Th0, 0.1 μM BMS-986165): 110% | CCL20 % of Control [2]: 106.4 % of Control | GM-CSF % of Control [2]: 210.5 % of Control | IFN-γ % of Control [2]: 80.9 % of Control | IL-1β % of Control [2]: 113.2 % of Control | IL-2 % of Control [2]: 187.4 % of Control | IL-4 % of Control [2]: 114.7 % of Control | IL-5 % of Control [2]: 178.6 % of Control | IL-6 % of Control [2]: 124.0 % of Control | IL-10 % of Control [2]: 33.8 % of Control | IL-13 % of Control [2]: 205.9 % of Control | IL-17A % of Control [2]: 73.0 % of Control | IL-17F % of Control [2]: 28.3 % of Control | IL-21 % of Control [2]: 94.5 % of Control | IL-22 % of Control [2]: 13.4 % of Control | IL-23 % of Control [2]: 89.9 % of Control | TNF-α % of Control [2]: 160.7 % of Control | increase of GM-CSF (Th0, 1 μM BMS-986165): 31% | inhibition of TNF-α cytokine expression (Th0, 1 μM BMS-986165): 66% | IL-17A levels (Th0, 1 μM BMS-986165 (combination: + 1 μM apremilast), control 138 pg/mL): 97 pg/mL | effect on IL-17A cytokine expression (Th0 and Th17): inhibited | effect on IL-17F cytokine expression (Th0 and Th17): inhibited | effect on IL-22 cytokine expression (Th0 and Th17): inhibited | effect on IL-22 cytokine expression, statistical significance (Th0 and Th17, 0.1 μM and 1 μM BMS-986165): significantly lowered | inhibition of TNF-α levels, statistical significance (Th0 and Th17, 1 μM BMS-986165): significant | effect on IL-17F, statistical significance (Th0 and Th17, 0.1 and 1 μM BMS-986165): significantly reduced | effect on IL-22 cytokine expression (Th17, 0.001 μM BMS-986165): no effect | increase in TNF-α production (Th17, 0.01 μM BMS-986165): 19% | increase of GM-CSF (Th17, 0.01 μM BMS-986165): 41% | CCL20 % of Control [3]: 121.7 % of Control | GM-CSF % of Control [3]: 141.1 % of Control | IFN-γ % of Control [3]: 114.2 % of Control | IL-1β % of Control [3]: 94.2 % of Control | IL-2 % of Control [3]: 128.5 % of Control | IL-4 % of Control [3]: 126.5 % of Control | IL-5 % of Control [3]: 144.3 % of Control | IL-6 % of Control [3]: 96.8 % of Control | IL-10 % of Control [3]: 78.4 % of Control | IL-13 % of Control [3]: 158.1 % of Control | IL-17A % of Control [3]: 97.7 % of Control | IL-17F % of Control [3]: 73.6 % of Control | IL-21 % of Control [3]: 91.5 % of Control | IL-22 % of Control [3]: 83.3 % of Control | IL-23 % of Control [3]: 93.8 % of Control | TNF-α % of Control [3]: 118.5 % of Control | inhibition of IL-22 cytokine expression [3]: 17% | IL-17A levels (Th17, 0.01 μM BMS-986165 (combination: + 1 μM apremilast), control 532 pg/mL): 519 pg/mL | increase in TNF-α levels, statistical significance (Th17, 0.1 μM BMS-986165): significant | increase in TNF-α production (Th17, 0.1 μM BMS-986165): 77% | increase of GM-CSF (Th17, 0.1 μM BMS-986165): 139% | CCL20 % of Control [4]: 157.8 % of Control | GM-CSF % of Control [4]: 239.3 % of Control | IFN-γ % of Control [4]: 74.7 % of Control | IL-1β % of Control [4]: 89.0 % of Control | IL-2 % of Control [4]: 250.3 % of Control | IL-4 % of Control [4]: 161.9 % of Control | IL-5 % of Control [4]: 249.9 % of Control | IL-6 % of Control [4]: 112.7 % of Control | IL-10 % of Control [4]: 46.6 % of Control | IL-13 % of Control [4]: 287.5 % of Control | IL-17A % of Control [4]: 79.2 % of Control | IL-17F % of Control [4]: 30.0 % of Control | IL-21 % of Control [4]: 86.3 % of Control | IL-22 % of Control [4]: 39.8 % of Control | IL-23 % of Control [4]: 96.3 % of Control | TNF-α % of Control [4]: 177.4 % of Control | inhibition of IL-22 cytokine expression [4]: 60% | IL-17A levels (Th17, 0.1 μM BMS-986165 (combination: + 1 μM apremilast), control 532 pg/mL): 428 pg/mL | increase of GM-CSF (Th17, 1 μM BMS-986165): 104% | inhibition of IL-22 cytokine expression (Th17, 1 μM BMS-986165): 70% | IL-17A levels (Th17, 1 μM BMS-986165 (combination: + 1 μM apremilast), control 532 pg/mL): 383 pg/mL | inhibition of IL-17A expression (similar under Th0 and Th17, 0.001-1 μM BMS-986165): 10-25% | effect on GM-CSF production (whole blood, Th0 and Th17): increased | effect on TNF-α production (whole blood, Th0 and Th17): increased
